Data as given in US20030105595A1, “Chi square tests for gene expression” (priority 2001, published 2003).

Legend:
Assay in all cases: multi-sample expression analysis, band intensity
Format in all cases: in vivo
Details in all cases: Pooled
band b1i0_60.7 = system: band b1i0_60.7
Description: (§1) To practice the invention, one skilled in the art obtains a source of biological samples, as well as expression information about the biological samples, i.e., expression information relative to one or more genes or polypeptides encoded therein. Data is collected for a particular phenotype appearing within a given population under study, whereby expression of that phenotype is to be determined within the biological sample under study. The phenotype is correlated to a specific genotype, which is then represented as a band with a given intentity, thus indicative of gene expression levels, and is then compared to control samples. Alternatively, the response of a gene to dosage with one or more drugs is determined by band intensity. The standard deviation from the mean (StdDev) is calculated for the control samples, and is fit to functional form in the following equation: […]
(§2) A multi-sample expression analysis was run using the program described in Example 1. For each drug run, only runs for genes producing bands with a p-value<10^−5 in at least 2 of the following 3 comparisons were selected: low dose versus vehicle, high dose versus vehicle and low dose versus high dose. […] Since clusters found using all 13K bands included some of the best 2K bands, it was concluded that no essential signal was lost (see FIGS. 3 and 4). […] A comparison using the same analytic tests on only the best 2K bands. It can be seen that the Chi Square metric provides a better distinction between low and high doses than the correlation metric, which is not able to distinguish between the low dose and the high dose (see FIG. 6). The low-dose/high dose statistical variation is more pronounced when only the best 2K bands are selected.

band b1i0_63.7 = system: band b1i0_63.7
Description: as §1, §2

band b1i0_69.4 = system: band b1i0_69.4
Description: as §1, §2

band b1i0_54.5 = system: band b1i0_54.5
Description: as §1, §2

band b1i0_57.4 = system: band b1i0_57.4
Description: as §1, §2

band b1i0_53.0 = system: band b1i0_53.0
Description: as §1, §2

band b1i0_51.7 = system: band b1i0_51.7
Description: as §1, §2

band b1i0_62.5 = system: band b1i0_62.5
Description: as §1, §2

## Nc1ccc(Cc2ccc(N)cc2)cc1 [Methylenedianiline]
Band b1i0_60.7; High dose, 1d
  band intensity b1i0_60.7: 67.13
Band b1i0_60.7; High dose, 3d
  band intensity b1i0_60.7: 85.72
Band b1i0_60.7; High dose, 7d
  band intensity b1i0_60.7: 82.44
Band b1i0_60.7; High dose, 14d
  band intensity b1i0_60.7: 158.3
Band b1i0_60.7; Low dose, 1d
  band intensity b1i0_60.7: 66.66
Band b1i0_60.7; Low dose, 3d
  band intensity b1i0_60.7: 78.99
Band b1i0_60.7; Low dose, 7d
  band intensity b1i0_60.7: 79.32
Band b1i0_60.7; Low dose, 14d
  band intensity b1i0_60.7: 139.6
Band b1i0_63.7; High dose, 1d
  band intensity b1i0_63.7: 85.1
Band b1i0_63.7; High dose, 3d
  band intensity b1i0_63.7: 153.8
Band b1i0_63.7; High dose, 7d
  band intensity b1i0_63.7: 144.3
Band b1i0_63.7; High dose, 14d
  band intensity b1i0_63.7: 2.073
Band b1i0_63.7; Low dose, 1d
  band intensity b1i0_63.7: 24.89
Band b1i0_63.7; Low dose, 3d
  band intensity b1i0_63.7: 84.1
Band b1i0_63.7; Low dose, 7d
  band intensity b1i0_63.7: 287.2
Band b1i0_63.7; Low dose, 14d
  band intensity b1i0_63.7: 0.3527
Band b1i0_69.4; High dose, 1d
  band intensity b1i0_69.4: 262.2
Band b1i0_69.4; High dose, 3d
  band intensity b1i0_69.4: 329.9
Band b1i0_69.4; High dose, 7d
  band intensity b1i0_69.4: 290.2061
Band b1i0_69.4; High dose, 14d
  band intensity b1i0_69.4: 512.9
Band b1i0_69.4; Low dose, 1d
  band intensity b1i0_69.4: 349.4
Band b1i0_69.4; Low dose, 3d
  band intensity b1i0_69.4: 349.3
Band b1i0_69.4; Low dose, 7d
  band intensity b1i0_69.4: 303.1
Band b1i0_69.4; Low dose, 14d
  band intensity b1i0_69.4: 714.8
Band b1i0_54.5; High dose, 1d
  band intensity b1i0_54.5: 104.9
Band b1i0_54.5; High dose, 3d
  band intensity b1i0_54.5: 106
Band b1i0_54.5; High dose, 7d
  band intensity b1i0_54.5: 82.18
Band b1i0_54.5; High dose, 14d
  band intensity b1i0_54.5: 51.09
Band b1i0_54.5; Low dose, 1d
  band intensity b1i0_54.5: 123.7
Band b1i0_54.5; Low dose, 3d
  band intensity b1i0_54.5: 111.4
Band b1i0_54.5; Low dose, 7d
  band intensity b1i0_54.5: 86.49
Band b1i0_54.5; Low dose, 14d
  band intensity b1i0_54.5: 62.55
Band b1i0_57.4; High dose, 1d
  band intensity b1i0_57.4: 1230
Band b1i0_57.4; High dose, 3d
  band intensity b1i0_57.4: 1407
Band b1i0_57.4; High dose, 7d
  band intensity b1i0_57.4: 1184
Band b1i0_57.4; High dose, 14d
  band intensity b1i0_57.4: 455.9
Band b1i0_57.4; Low dose, 1d
  band intensity b1i0_57.4: 1376
Band b1i0_57.4; Low dose, 3d
  band intensity b1i0_57.4: 1433
Band b1i0_57.4; Low dose, 7d
  band intensity b1i0_57.4: 1280
Band b1i0_57.4; Low dose, 14d
  band intensity b1i0_57.4: 789.2
Band b1i0_53.0; High dose, 1d
  band intensity b1i0_53.0: 101.1
Band b1i0_53.0; High dose, 3d
  band intensity b1i0_53.0: 98.11
Band b1i0_53.0; High dose, 7d
  band intensity b1i0_53.0: 113.8
Band b1i0_53.0; High dose, 14d
  band intensity b1i0_53.0: 60.92
Band b1i0_53.0; Low dose, 1d
  band intensity b1i0_53.0: 103.4
Band b1i0_53.0; Low dose, 3d
  band intensity b1i0_53.0: 101.1
Band b1i0_53.0; Low dose, 7d
  band intensity b1i0_53.0: 111.5
Band b1i0_53.0; Low dose, 14d
  band intensity b1i0_53.0: 55.87
Band b1i0_51.7; High dose, 1d
  band intensity b1i0_51.7: 23.55
Band b1i0_51.7; High dose, 3d
  band intensity b1i0_51.7: 27.88
Band b1i0_51.7; High dose, 7d
  band intensity b1i0_51.7: 23.35
Band b1i0_51.7; High dose, 14d
  band intensity b1i0_51.7: 33.18
Band b1i0_51.7; Low dose, 1d
  band intensity b1i0_51.7: 22.28
Band b1i0_51.7; Low dose, 3d
  band intensity b1i0_51.7: 27.01
Band b1i0_51.7; Low dose, 7d
  band intensity b1i0_51.7: 21.37
Band b1i0_51.7; Low dose, 14d
  band intensity b1i0_51.7: 71.33
Band b1i0_62.5; High dose, 1d
  band intensity b1i0_62.5: 59.42
Band b1i0_62.5; High dose, 3d
  band intensity b1i0_62.5: 70.64
Band b1i0_62.5; High dose, 7d
  band intensity b1i0_62.5: 71.55
Band b1i0_62.5; High dose, 14d
  band intensity b1i0_62.5: 185.7
Band b1i0_62.5; Low dose, 1d
  band intensity b1i0_62.5: 63.43
Band b1i0_62.5; Low dose, 3d
  band intensity b1i0_62.5: 69.92
Band b1i0_62.5; Low dose, 7d
  band intensity b1i0_62.5: 86.01
Band b1i0_62.5; Low dose, 14d
  band intensity b1i0_62.5: 207.6
